Reference: patent publication US7879370B2, “Composition of which chief ingredient is polysaccharides having an immunoregulatory function” (Merican Corporation, priority 2006, dated 2011)

Assay type: in vivo, BALB/c mice
Details: mouse antiallergy test, days 0 to 22; FIG. 9
Description: Body weight was determined with a scale on days 0, 7, 14, and 22. General symptoms were observed daily from day 0 to day 22. Blood plasma analysis was conducted by measuring the OVA-specific IgE level using plasma obtained by centrifuging blood drawn from the ophthalmic vein on days 0, 14, 18, and 22.

SMILES: O=P1(N(CCCl)CCCl)NCCCO1 (stereo not shown) [cyclophosphamide]
- change in body weights: reduction in the body weight
